Experimental data taken from patent US11104881B2, “Method for highly efficient conversion of human stem cells to lineage-specific neurons” (THE JOHNS HOPKINS UNIVERSITY, priority 2013, dated 2021).
“Also recorded” adds a separate entry of the source.

Legend:
Atoh1-induced neurons [1] = format: cell-based, human
[2] = tested on: primary DA neurons from substantia nigra; settings: 6-OHDA 40 μM; cited from earlier work
[3] = tested on: Atoh1-induced DA neurons derived from human iPSCs; format: cell-based; settings: 40 μM and 100 μM for 15 minutes
Procedure: Neuron culture medium was changed to neurobasal medium before treatment. 6-OHDA was freshly prepared in vehicle solution (ascorbic acid (0.15%) in H2O) and quickly added to the neuron culture. Control cells were treated with vehicle solution alone. After 15 min at 37° C., the medium was removed and neurons were gently washed twice with Neurobasal Medium. 200 μl neuron culture medium (Neurobasal Medium with B27 Supplement) was added to each well and further incubated for 24 h. Cytotoxicity induced by 6-OHDA was measured using LDH Cytotoxicity Detection Kit (Roche) following the manufacturer's protocol. The percentage cytotoxicity was calculated using the following equation: Cytotoxicity (%)=(Experiment Value−Low Control)/(High Control−Low Control)×100. (Low control: culture medium; High control: total cell lysate).
6-hydroxydopamine (6-OHDA) is a neurotoxin widely used to induce neurotoxicity both in vivo and in vitro to model DA neuron loss in PD pathogenesis. […] Here, we tested the response of Atoh1-induced DA neurons to 6-OHDA treatment. […] Thus, Atoh1-induced DA neurons derived from human iPSCs are sensitive to 6-OHDA treatment at a concentration that selectively damages primary DA neurons isolated from substantia nigra.

Atoh1-iPSCs = test: Dox-inducible Atoh1 expression measured by qRT-PCR; format: cell-based, human; settings: Dox treatment for 2 days
Procedure: Total RNA was extracted using the RNeasy Mini kit (Qiagen). Reverse transcription was performed using MuLV reverse transcriptase (Applied biosystems) and Oligo(dT) primers. qRT-PCR was performed using SYBR Green PCR Master Mix (Applied Biosystems) and IQ5 RT-PCR detection system (Bio-rad). Relative expression of each gene was normalized to the 18S rRNA. To further optimize the Atoh1-mediated differentiation strategy, we asked what is the minimum time of Atoh1 induction for successful neuronal conversion. Equal numbers of Atoh1-iPSCs received different durations of Dox treatment (1 to 5 days), after which cells were replated and allowed to mature in vitro for additional 30 days. […] In contrast, Dox treatment for 2 to 5 days successfully differentiated iPSCs into neurons expressing TUJ1 and MAP2 (FIG. 9). […] To compare the level of neurogenic signaling before and after silencing ectopic Atoh1 expression, we treated Atoh1-iPSCs with Dox for 2 days and then withdrew Dox for 3 days (FIGS. 2J and 2K).

Atoh1-induced neurons [4] = test: Current-clamp recording, negative current injection: hyperpolarization sag and rebound action potentials; format: cell-based, human; settings: ML252 5 μM
Atoh1-induced DA neurons = format: cell-based, human

Nc1ccncc1 [4-AP]
effect on potassium current (Atoh1-induced neurons [1]; 4-AP 25 μM, together with TTX, voltage-clamp): significantly attenuated

NCCc1cc(O)c(O)cc1O [6-OHDA, 6-hydroxydopamine]
DA neuron loss in rat substantia nigra neuron cultures [2]: causes selective DA neuron loss without affecting GABA neurons | neuron death by LDH Cytotoxicity assay ([3]; LDH after 24 h): neuron death was also confirmed | morphological signs of neuron death (cell condensation, neurite fragmentation) ([3]; differentiation day 36, read 24 hours after treatment): caused morphological signs of neuron death

C[C@H]1c2cccc(O)c2C(=O)C2=C(O)[C@]3(O)C(=O)C(C(N)=O)=C(O)[C@@H](N(C)C)[C@@H]3[C@@H](O)[C@@H]21 [Dox, Doxycycline]
Atoh1 up-regulation by qRT-PCR versus control (Atoh1-iPSCs): 49 fold

CC[C@H](C(=O)Nc1ccccc1N1CCCC1)c1ccccc1 [ML252]
effect on hyperpolarization sag and rebound action potentials (Atoh1-induced neurons [4]): dampened; also recorded: blocked

NC1=N[C@H](O)[C@H]2[C@H]3O[C@]4(O)O[C@@H]([C@@H](O)[C@@]2(N1)[C@@H]4O)[C@]3(O)CO [TTX, tetrodotoxin]
effect on sodium current (Atoh1-induced neurons [1]): significantly attenuated | effect on train of evoked action potentials (Atoh1-induced DA neurons): suppressed; also recorded: completely blocked | time to recovery of action potentials after TTX washout (Atoh1-induced DA neurons): 17 min
